Assay [1] deals with T1, HLA-A02.01 (Homo sapiens, UniProt P04439, D140Y/D185E/D98H/E176V/E277Q/G131W/G231S/I119V/I121R/I166T/I218V/N151K/N90K/P208A/P217A/Q86G/Q94H/R138H/R169H).
T1 construct: made in house; host or cells: E. coli
The experiment in a line: Class I MHC peptide binding stability (pMHC-I dissociation, 125I-labeled light chain). As to conditions: for Stability (T1/2 (h)): allele A02.01; for Measured stability: HLA Allele A02.01, time for half of the complexes to dissociate at 37° C.

For assay [2], the target named is HLA-A02.01 (Homo sapiens, UniProt P04439, D140Y/D185E/D98H/E176V/E277Q/G131W/G231S/I119V/I121R/I166T/I218V/L300P/L318F/N151K/N90K/P208A/P217A/Q86G/Q94H/R138H/R169H/T345S). Description: Class I MHC peptide binding affinity (displacement of radiolabeled reference peptide). The essentials: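 Radiolabeled reference peptide/MHCI complexes; test peptide titration, 2 d incubation; bound label remaining read by size-exclusion gel filtration.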

Setting [3] is: allele A02.01, read-out: Observed Affinity (IC50, (nM)).
Where [4] appears, read: Observed Affinity (IC50, (nM)), allele A02.01.

Like-named read-outs stand apart in the source and are kept apart here. Where a SMILES comes first, the peptide text is derived from it.

`CC(C)C[C@H](NC(=O)[C@H](CO)NC(=O)[C@H](CS)NC(=O)[C@H](CCC(=O)O)NC(=O)[C@H](Cc1c[nH]c2ccccc12)NC(=O)[C@H](CC(C)C)NC(=O)[C@H](C)NC(=O)[C@H](CC(C)C)NC(=O)[C@H](CC(C)C)NC(=O)[C@@H](N)Cc1ccccc1)C(=O)O`: the “Stability (T1/2 (h))” value at HLA-A02.01 [1] is on record as 10.8 h.
With `CC(C)C[C@H](NC(=O)CN)C(=O)N[C@H](C(=O)N[C@@H](CC(=O)O)C(=O)N[C@@H](CCC(=O)O)C(=O)N[C@@H](CCC(N)=O)C(=O)N[C@@H](CCC(N)=O)C(=O)N[C@@H](CCC(=O)O)C(=O)N[C@H](C(=O)O)C(C)C)C(C)C`, the IC50 on HLA-A02.01 [2] (setting [3]) is 44 nM. For the same compound, on HLA-A02.01 [1], the “Stability (T1/2 (h))” value amounted to 7.4 h.
On the same counts, the results for `CC[C@H](C)[C@H](NC(=O)[C@@H](NC(=O)[C@H](CC(C)C)NC(=O)[C@@H](NC(=O)[C@@H]1CCCN1C(=O)[C@H](CCCNC(=N)N)NC(=O)[C@H](CCC(N)=O)NC(=O)[C@H](CC(N)=O)NC(=O)[C@H](CCSC)NC(=O)CN)[C@@H](C)CC)[C@@H](C)O)C(=O)O` are 709 nM and 0.4 h.
For `CC[C@H](C)[C@H](NC(=O)[C@@H](NC(=O)[C@H](CC(C)C)NC(=O)[C@@H](NC(=O)[C@@H]1CCCN1C(=O)[C@H](CCCNC(=N)N)NC(=O)[C@H](Cc1c[nH]c2ccccc12)NC(=O)[C@H](CC(N)=O)NC(=O)[C@H](CCSC)NC(=O)CN)[C@@H](C)CC)[C@@H](C)O)C(=O)O`, the IC50 on HLA-A02.01 [2] (setting [3]) is 282 nM. Further, the “Stability (T1/2 (h))” value at HLA-A02.01 [1] is reported as 0.5 h.
With `CC(C)C[C@H](NC(=O)[C@@H](N)CCCCN)C(=O)N[C@H](C(=O)N[C@H](C(=O)N[C@H](C(=O)NCC(=O)N[C@@H](C)C(=O)N[C@@H](CC(=O)O)C(=O)NCC(=O)N[C@H](C(=O)O)C(C)C)C(C)C)C(C)C)C(C)C`, at HLA-A02.01 [1], the “Measured stability” value was found to be 0.9 h and the “Stability (T1/2 (h))” value amounted to 0.9 h.
As for `CC[C@H](C)[C@H](NC(=O)[C@@H](N)CC(C)C)C(=O)N[C@@H](CCSC)C(=O)N[C@@H](CCC(N)=O)C(=O)N[C@@H](CC(C)C)C(=O)N[C@@H](CCSC)C(=O)N1CCC[C@H]1C(=O)N[C@@H](Cc1ccccc1)C(=O)NCC(=O)N[C@@H](CS)C(=O)O`, at HLA-A02.01 [2] (EGFR T790M peptides, HLA allele A02.01, read-out: Affinity), the Kd was determined as 132 nM. At HLA-A02.01 [2] (setting [3]), the IC50 was determined as 177 nM. In addition, on HLA-A02.01 [1] (EGFR T790M peptides, HLA allele A02.01), the “Stability (half-life (hr.))” value is 22.88 min. Besides, the “Stability (T1/2 (h))” value at HLA-A02.01 [1] was determined as 0.4 h.
As for `CC(C)C[C@H](NC(=O)[C@H](CO)NC(=O)[C@H](CS)NC(=O)[C@H](CCC(=O)O)NC(=O)[C@H](Cc1c[nH]c2ccccc12)NC(=O)[C@H](CC(C)C)NC(=O)[C@H](C)NC(=O)[C@H](CC(C)C)NC(=O)[C@@H](N)CC(C)C)C(=O)O`, at HLA-A02.01 [1], the “Stability (T1/2 (h))” value is reported as 4 h.
On to `CC(C)C[C@H](N)C(=O)N[C@H](C(=O)N[C@H](C(=O)N[C@H](C(=O)NCC(=O)N[C@@H](C)C(=O)N[C@H](C(=O)NCC(=O)N[C@H](C(=O)O)C(C)C)C(C)C)C(C)C)C(C)C)C(C)C`, for which, on HLA-A02.01 [1], the “Measured stability” value was 0.6 h and the “Stability (T1/2 (h))” value was 0.6 h.
`CC[C@H](C)[C@H](N)C(=O)N[C@H](C(=O)N[C@H](C(=O)N[C@@H](CCC(=O)O)C(=O)N[C@@H](Cc1ccc(O)cc1)C(=O)N[C@@H](CS)C(=O)N[C@@H](Cc1ccccc1)C(=O)N[C@@H](Cc1ccc(O)cc1)C(=O)NCC(=O)O)[C@@H](C)CC)[C@@H](C)CC` (H-IIIEYCFYG-OH; N-terminus and C-terminus assumed): the “Stability (T1/2 (h))” value at HLA-A02.01 [1] is on record as 1.2 h.
Still for that read-out and setting: with `CSCC[C@H](NC(=O)[C@H](CCC(N)=O)NC(=O)[C@H](CC(C)C)NC(=O)[C@@H](NC(=O)[C@@H](N)CCCCN)C(C)C)C(=O)N[C@@H](CC(=O)O)C(=O)N[C@@H](Cc1ccccc1)C(=O)N[C@@H](CC(C)C)C(=O)N[C@H](C(=O)O)C(C)C` (H-KVLQMDFLV-OH; N-terminus and C-terminus assumed) the figure was 6.4 h; with `CC[C@H](C)[C@H](NC(=O)[C@@H](N)C(C)C)C(=O)N[C@H](C(=O)N[C@@H](CCC(=O)O)C(=O)N[C@@H](Cc1ccc(O)cc1)C(=O)N[C@@H](CS)C(=O)N[C@@H](CS)C(=O)N[C@@H](Cc1ccc(O)cc1)C(=O)NCC(=O)O)[C@@H](C)CC` (H-VIIEYCCYG-OH; N-terminus and C-terminus assumed), 0.5 h.
Take `CC(C)C[C@H](NC(=O)[C@H](CCCNC(=N)N)NC(=O)[C@@H](N)C(C)C)C(=O)N[C@@H](CO)C(=O)N[C@@H](CO)C(=O)N[C@@H](CS)C(=O)N[C@H](C(=O)N1CCC[C@H]1C(=O)N[C@H](C(=O)N[C@@H](C)C(=O)O)C(C)C)C(C)C` (H-VRLSSCVPVA-OH; N-terminus and C-terminus assumed): the IC50 on HLA-A02.01 [2] (setting [3]) worked out at 1210 nM.
Take `CC[C@H](C)[C@H](NC(=O)[C@@H](NC(=O)[C@@H](NC(=O)[C@@H](N)Cc1ccc(O)cc1)[C@@H](C)CC)[C@@H](C)CC)C(=O)N[C@@H](CCC(=O)O)C(=O)N[C@@H](Cc1ccccc1)C(=O)N[C@@H](CCSC)C(=O)N[C@H](C(=O)N[C@@H](Cc1ccc(O)cc1)C(=O)NCC(=O)O)[C@@H](C)O` (H-YIIIEFMTYG-OH; N-terminus and C-terminus assumed): the IC50 on HLA-A02.01 [2] (setting [4]) came out at 186 nM.
As for `CC[C@H](C)[C@H](NC(=O)[C@H](CC(=O)O)NC(=O)[C@H](CC(C)C)NC(=O)[C@H](CC(C)C)NC(=O)[C@H](Cc1ccccc1)NC(=O)[C@H](Cc1ccccc1)NC(=O)[C@H](C)NC(=O)[C@@H](NC(=O)[C@@H](NC(=O)[C@@H](N)Cc1ccc(O)cc1)[C@@H](C)CC)[C@@H](C)O)C(=O)O` (H-YITAFFLLDI-OH; N-terminus and C-terminus assumed), on HLA-A02.01 [2] (setting [3]), the IC50 was 64.5 nM.
With `CC[C@H](C)[C@H](NC(=O)[C@H](CC(N)=O)NC(=O)[C@H](CCSC)NC(=O)[C@H](Cc1c[nH]cn1)NC(=O)[C@H](CC(N)=O)NC(=O)CNC(=O)[C@H](CC(C)C)NC(=O)[C@@H](N)Cc1ccc(O)cc1)C(=O)N[C@@H](C)C(=O)N[C@@H](CC(N)=O)C(=O)O` (H-YLGNHMNIAN-OH; N-terminus and C-terminus assumed), the IC50 at HLA-A02.01 [2] (setting [4]) worked out at 1340 nM.
`CC(C)C[C@H](NC(=O)[C@H](Cc1ccccc1)NC(=O)[C@H](Cc1ccccc1)NC(=O)[C@H](CCCCN)NC(=O)[C@@H]1CCCN1C(=O)[C@H](Cc1c[nH]c2ccccc12)NC(=O)[C@H](CCCCN)NC(=O)[C@@H](NC(=O)[C@H](CC(C)C)NC(=O)[C@@H](N)Cc1ccc(O)cc1)[C@@H](C)O)C(=O)O` (H-YLTKWPKFFL-OH; N-terminus and C-terminus assumed): the IC50 at HLA-A02.01 [2] (setting [3]) is 42.9 nM.
With `CC[C@H](C)[C@H](NC(=O)[C@@H](NC(=O)[C@H](CC(C)C)NC(=O)[C@@H](N)Cc1ccc(O)cc1)C(C)C)C(=O)N[C@@H](CCC(N)=O)C(=O)N[C@@H](CC(C)C)C(=O)N[C@@H](CCC(N)=O)C(=O)N[C@@H](CC(=O)O)C(=O)N[C@@H](CCCCN)C(=O)N[C@@H](Cc1ccccc1)C(=O)O` (H-YLVIQLQDKF-OH), the IC50 at HLA-A02.01 [2] (setting [3]) worked out at 2060 nM.
In the case of `CSCC[C@H](NC(=O)[C@@H](N)Cc1ccc(O)cc1)C(=O)N[C@@H](C)C(=O)N[C@@H](CC(N)=O)C(=O)NCC(=O)N[C@@H](CO)C(=O)N[C@@H](CC(C)C)C(=O)N[C@@H](CC(C)C)C(=O)N[C@@H](CC(N)=O)C(=O)O` (H-YMANGSLLN-OH; N-terminus and C-terminus assumed), the IC50 was determined as 4000 nM on HLA-A02.01 [2] (BTK C481S peptide, HLA Allele A02.01, read-out: Affinity) and 4440 nM at HLA-A02.01 [2] (setting [3]).
As for `CSCC[C@H](NC(=O)[C@H](CS)NC(=O)[C@H](CO)NC(=O)[C@H](CO)NC(=O)[C@H](CC(N)=O)NC(=O)[C@H](CS)NC(=O)[C@H](CCSC)NC(=O)[C@@H](N)Cc1ccc(O)cc1)C(=O)NCC(=O)N[C@@H](CO)C(=O)O` (H-YMCNSSCMGS-OH; N-terminus and C-terminus assumed), the “Stability (T1/2 (h))” value at HLA-A02.01 [1] was determined as 0.8 h.
`CSCC[C@H](NC(=O)[C@H](CCCCN)NC(=O)CNC(=O)[C@H](CC(N)=O)NC(=O)[C@H](CCC(N)=O)NC(=O)[C@@H](N)Cc1ccccc1)C(=O)N[C@@H](C)C(=O)N[C@@H](CC(C)C)C(=O)N[C@@H](CO)C(=O)O` [FQNGKMALS] (H-FQNGKMALS-OH; N-terminus and C-terminus assumed): at HLA-A02.01 [2] (setting [3]), the IC50 is 3280 nM.
Still for that read-out and setting: with `CC(C)C[C@H](NC(=O)[C@H](C)NC(=O)[C@H](CCC(=O)O)NC(=O)[C@H](CCC(N)=O)NC(=O)[C@@H](NC(=O)[C@H](CC(=O)O)NC(=O)[C@H](Cc1ccccc1)NC(=O)[C@H](CCC(=O)O)NC(=O)[C@H](CCC(N)=O)NC(=O)[C@@H](N)CC(C)C)C(C)C)C(=O)O` [LQEFDVQEAL] (H-LQEFDVQEAL-OH) the figure was 50300 nM.
On the same count and under the same terms, with `CC(C)C[C@H](NC(=O)[C@H](C)NC(=O)[C@H](Cc1ccccc1)NC(=O)[C@H](CO)NC(=O)[C@@H](NC(=O)[C@H](CCC(N)=O)NC(=O)[C@@H](NC(=O)[C@@H](NC(=O)[C@H](CCC(N)=O)NC(=O)[C@@H](N)CC(C)C)C(C)C)[C@@H](C)O)[C@@H](C)O)C(=O)O` [LQVTQTSFAL] (H-LQVTQTSFAL-OH; N-terminus and C-terminus assumed) the figure was 718 nM; with `CC[C@H](C)[C@H](NC(=O)[C@@H](NC(=O)[C@@H](N)CC(C)C)[C@@H](C)O)C(=O)N[C@@H](CC(N)=O)C(=O)N[C@@H](CCCCN)C(=O)N[C@@H](CCC(=O)O)C(=O)N[C@@H](CCC(=O)O)C(=O)N[C@@H](C)C(=O)N[C@@H](CC(C)C)C(=O)O` [LTINKEEAL], 4410 nM.
`CC(C)C[C@H](NC(=O)[C@H](C)NC(=O)[C@@H](NC(=O)[C@@H]1CCCN1C(=O)[C@@H](NC(=O)[C@H](CS)NC(=O)[C@H](CO)NC(=O)[C@H](CO)NC(=O)[C@H](CC(C)C)NC(=O)[C@@H](N)CCCNC(=N)N)C(C)C)C(C)C)C(=O)O` [RLSSCVPVAL] (H-RLSSCVPVAL-OH; N-terminus and C-terminus assumed): the IC50 at HLA-A02.01 [2] (setting [3]) is 54.2 nM.

Source of the values: patent US20220282217A1, “COMPOSITIONS AND METHODS FOR PREPARING T CELL COMPOSITIONS AND USES THEREOF” (priority 2019, published 2022).
